In brackets after ≈: the same amount, converted by molar mass. Several values for one entry are separate records, joined by “and”; a condition that tells them apart may be missing. Equal values may be shown once. Where a name gives a salt, the structure may show the parent alone. Read-outs that look alike come from different tables or passages of the source.
Experiments:
[1] = Acute toxicity, oral, mouse (LD 50, Miller and Tainter); format: in vivo; settings: in vivo, death rate checked for seven days, read-out: 50% lethal dose (LD 50) (converted)
Description: The acute toxicity of the compounds of formula (I) were evaluated orally (esophagean probe) on a mouse deprived of food 18 hours before the beginning of the test. The products were placed in suspension in a solution of dilute carboxymethyl cellulose. Calculation of the 50 lethal dose (LD 50) was effected according to the method of Miller and Tainter (Miller L. C., Tainter M. L., Proc. Soc. Exptl. Biol. Med. 1944, 57, 261-264).
The death rate was checked for seven days following the treatment.
Table III gives the 50% lethal doses (LD 50) in milligrammes per kilogramme body weight.

[2] = test system: human blood-plaques (aggregation with adrenaline); experiment: Inhibition of blood-plaque aggregation induced by adrenaline; format: cell-based; settings: for inhibition at 25 µg/mL: Homo sapiens, C (X)=2.5×10^-5 g/ml, read-out: Inhibitory activity of the blood-plaque aggregation, ADRENALINE, a (X); for Ratio of a (X) to a (R), ADRENALINE (head drawn): X 2.5×10^-5 g/ml, R 5×10^-4 g/ml
Text: (§1) The blood plaques used for these studies were human blood-plaques introduced into the test in the form of blood-plaque rich plasmas (B.P.R.P.).
(§2) These latter were obtained as water-repellent material by slow centrifugation from human blood samples.
(§3) The study of blood-plaque aggregation was made by means of an aggregate-meter with continuous agitation and graphic recording according to the conventional method. (PROST R. S., SOUVERAIN C. H., DOUMENC J., Etude de l'agregation plaquettaire a l'aide de l'agregametre de MUSTARD-Coagulation, 1971, 4, 2, 145-151).
(§4) The agents employed for inducing aggregation were diphosphoric adenosine acid (D.P.A.), 1-(3',4'-di-hydroxyphenyl)-2-methylamino ethanol (adrenaline) and collagene. All these reactants were prepared from mother solutions diluted in a Michaelis' buffer. Their concentration in the test may vary according to the affinity of the blood-plaques.
(§5) An optimum concentration is thus sought by successive tests on the same B.P.R.P.
(§6) The inhibitory activity on the aggregation was evaluated by addition of the product under study to the B.P.R.P. before introduction of the aggregating agent.
(§7) The concentrations of compounds of formula I (X) in the B.P.R.P. are: C (X)=2.5×10^-5 g/ml for aggregation with D.P.A. and adrenaline, and C (X)=2×10^-5 g/ml for collagene.
(§8) The reference product (R) is 2,6-bis (diethanolamino)-4,8-dipiperidinopyrimido[5,4-d]pyramidine (known under the trademark "Dipyridamole") used in the concentration C (R)=5×10^-4 g/ml for aggregation with D.P.A. and adrenaline and C (R)=2×10^-4 g/ml for aggregation with collagene.
(§9) The following table IV indicates the activity of some compounds of formula I: a (X) the activity of the reference product: a (R) and the different values of the ratio: [formula]

[3] = test system: human blood-plaques (aggregation with collagene); experiment: Inhibition of blood-plaque aggregation induced by collagene; format: cell-based; settings: for Inhibitory activity of the blood-plaque aggregation, COLLAGENE, a (X) / inhibition at 20 µg/mL: C (X)=2×10^-5 g/ml; for Ratio of a (X) to a (R), COLLAGENE (head drawn): X 2×10^-5 g/ml, R 2×10^-4 g/ml; for inhibition at 20 µg/mL: Homo sapiens, read-out: Inhibitory activity of the blood-plaque aggregation, COLLAGENE, a (X)
Text: as §1, §2, §3, §4, §5, §6, §7, §8, §9

[4] = test system: isolated heart of a gumea-pig; experiment: Vaso-dilatatory activity, coronary flow of isolated perfused heart; settings: for activation at 10 µg/mL: Locke, 37° C., read-out: Percentage flow increase P (X); for P (X) / P (R): relative to Dipyridamole, both 1×10^-5 g/ml
Description: The coronary flow is recorded, by means of an electronic device fitted with a Fleish totaliser, before and after addition of the substance X under study (concentration: 1×10^-5 g/ml), the reference product (R) being 2,6-bis (diethanolamino) 4,8-dipiperidinopyrimido[5,4-d]pyrimidine (known under the trademark "Dipyridamole") used at a concentration of 1×10^-5 g/ml.
The percentage flow increase P was calculated at the climax of the activity of X or R.

rat's isolated duodenum = experiment: Spasmolytic activity on isolated duodenum contracted by barium chloride (Magnus); settings: for IC50: Rattus norvegicus, barium chloride contraction, Tyrode, 38° C., read-out: Spasmolytic activity ED 50 (X); for ED 50 (R) / ED 50 (X): relative to papaverine hydrochloride
Description: The spasmolytic activity was studied on a rat's isolated duodenum maintained in a survival medium of an aerated Tyrode solution heated to 38° C. according to the technique of Magnus (Magnus R.-Archivs ges. Physiol., 1905, 180, 1-71).
The contracting agent used was barium chloride, the reference antogonist agent being papaverine hydrochloride (R). The average activity of the compounds of formula I (X) in comparison with that of the reference agent was expressed by calculating the ratio of the 50 efficient doses (ED 50) determined graphically on logarithmic paper: [formula]
For example: a substance having a relative activity expressed by the FIG. 2 presents an activity equal to twice that of papaverine hydrochloride.

[5] = test system: human blood-plaques (aggregation with D.P.A.); experiment: Inhibition of blood-plaque aggregation induced by D.P.A.; format: cell-based; settings: for Ratio of a (X) to a (R), D.P.A. (head drawn): X 2.5×10^-5 g/ml, R 5×10^-4 g/ml; for inhibition at 25 µg/mL: Homo sapiens, read-out: Inhibitory activity of the blood-plaque aggregation, D.P.A., a (X)
Text: as §1, §2, §3, §4, §5, §6, §7, §8, §9

[6] = test system: phenylparaquinone (P.P.Q.) painful syndrome in a mouse; experiment: Analgesic and anti-inflammatory activity, phenylparaquinone (P.P.Q.) painful syndrome; format: in vivo; settings: for Analgesic and anti-inflammatory activity, percentage activity a(X): 50 mg/kg digestively; for a(X) / a(R), analgesic and anti-inflammatory activity: X 50 mg/kg, R (Galfenine) 25 mg/kg
Description: The intraperitoneal injection of phenylparaquinone (P.P.Q.) in a mouse causes the appearance of a painful syndrome appearing within 5 minutes of the injection and disappearing after about 30 minutes (SIEGMUND E. A., CADMUS A., LU G., J. Pharmacol. Exp. Therap. 1957, 119, 453). This painful syndrome manifests itself in the animal by a series of characteristic crises, more or less close together and fleeting, during which we can note a twisting or stretching of the body, a hollowing of the sides and a stretching of the hind legs.
It is therefore possible to note the number of crises in a given interval of time.
The preventive administration of analgesic or anti-inflammatory substances prevents the appearance of crises or reduces the frequency thereof.
The reference substance (R) used in the tests was the ester of N-(7-chloro-4 quinolyl) anthranilic acid and 2,3-dihydroxy n.propanol (known under the trademark Galfenine).
It was administered orally with a dose of 25 mg/kg.
The compounds of formula I (X) were administered digestively with a dose of 50 mg/kg.
The interval of time (t) which was chosen to evaluate the analgesic activity was between 10 and 15 minutes which is the period of maximum frequency of the crises. This activity was expressed in the following way:
n: number of crises observed in the control mice;
n': number of crises observed in mice previously treated with the reference substance (R);
n": number of crises observed in mice having received the substance (X).
The percentage activity of R is equal to [formula]
The percentage activity of X is equal to [formula]
The activity of X in relation to that of R is estimated by the ratio [formula]
For example: a compound X for which [formula] is 0.5 has an activity equal to half that of the reference product.

[7] = 1×10^-5 g/ml, coronary flow at climax of activity
[8] = crises between 10 and 15 minutes
[9] = reference product, C (R)=5×10^-4 g/ml

Structure (SMILES) | LD50 at 168 h ([1]; po) | inhibition at 25 µg/mL [2] | Ratio of a (X) to a (R), ADRENALINE (head drawn) [2] | Ratio of a (X) to a (R), COLLAGENE (head drawn) [3] | activation at 10 µg/mL [4, 7] | P (X) / P (R) [4] | IC50 (rat's isolated duodenum) | ED 50 (R) / ED 50 (X) (rat's isolated duodenum) | Ratio of a (X) to a (R), D.P.A. (head drawn) [5] | inhibition at 25 µg/mL ([5]; C (X)=2.5×10^-5 g/ml) | inhibition at 20 µg/mL [3] | Analgesic and anti-inflammatory activity, percentage activity a(X) [6, 8] | a(X) / a(R), analgesic and anti-inflammatory activity [6] | also measured
O=C(CCCN1CCOCC1)c1cc2ccccc2s1 [Compound 1, 1-(benzothien-2'-yl)-4-N-morpholino butanone] | 1200 mg/kg | 9% | 1×10^-1 | 3.3×10^-1 | 28% | 6.5 × 10^-1 | – | – | – | – | – | – | – | Inhibitory activity of the blood-plaque aggregation, COLLAGENE, a (X) [3]: 12%
C=CCN(CC=C)CCCC(=O)c1cc2ccccc2s1 [Compound 3, 1-(benzothien-2'-yl)-4-N,N-diallylamino butanone oxalate] | – | – | – | 1.95×10^-1 | – | – | 1.2 µg/mL | 2.08 | 1.7×10^-1 | 15% | 13% | – | – | –
CN(C)CCCC(=O)c1cc2ccccc2s1 [Compound 4] | 950 mg/kg | 78% | 1 | 4.5×10^-1 | – | – | – | – | – | – | 39% | – | – | –
O=C(CCCN1CCCCC1)c1cc2ccccc2s1 [Compound 5] | 1300 mg/kg | 84% | 1.1 | 1.4×10^-1 | – | – | – | – | 1.5×10^-1 | 8% | 12% | – | – | –
O=C(CCCN1CCOCC1)c1cc2ccccc2s1 [Compound 6] | – | – | – | 3.5×10^-1 | – | – | – | – | 1.7×10^-1 | 15% | – | 55% | 7 × 10^-1 | Inhibitory activity of the blood-plaque aggregation, COLLAGENE, a (X) [3]: 32%
CCN(CC)CCCC(=O)c1csc2ccccc12 [Compound 9] | > 1200 mg/kg | 86% | 1 | 3×10^-1 | – | – | – | 8.10 | 1.9×10^-1 | 15% | 16% | 47% | 1 | –
CCCN(CCC)CCCC(=O)c1csc2ccccc12 [Compound 11] | 1100 mg/kg | 51% | 5.8×10^-1 | 3.3×10^-1 | 41% | 7.75 × 10^-1 | 1.05 µg/mL (≈ 3.46 µM) | 6.2 | 1.8×10^-1 | 10% | 12% | 48% | 6.5 × 10^-1 | –
CC(C)N(CCCC(=O)c1csc2ccccc12)C(C)C [Compound 12] | 500 mg/kg | 80% | 9.1×10^-1 | 2.3×10^-1 | 33% | 6.25 × 10^-1 | 1.35 µg/mL (≈ 4.45 µM) | 4.8 | – | 29% | 12% | 68% | 1.5 | –
O=C(CCCN1CCCC1)c1csc2ccccc12 [Compound 13] | 760 mg/kg | 84% | 1.1 | – | – | – | 2.25 µg/mL (≈ 8.23 µM) | 1.55 | 2.3×10^-1 | 18% | – | – | – | –
O=C(CCCN1CCCCC1)c1csc2ccccc12 [Compound 14] | 850 mg/kg | 42% | 5.5×10^-1 | – | – | – | – | – | – | – | – | 39% | 5.3 × 10^-1 | –
O=C(CCCN1CCCCCC1)c1csc2ccccc12 [Compound 15] | 950 mg/kg | 82% | 9.5×10^-1 | – | 172% | 2.42 | 3 µg/mL (≈ 9.95 µM) | 1.6 | – | – | – | 51% | 1.13 | Inhibitory activity of the blood-plaque aggregation, D.P.A., a (X) ([5]; C (X)=2.5×10^-5 g/ml): 17%
OCCN(CCO)c1nc(N2CCCCC2)c2nc(N(CCO)CCO)nc(N3CCCCC3)c2n1 [Dipyridamole, 2,6-bis (diethanolamino)-4,8-dipiperidinopyrimido[5,4-d]pyramidine, reference compound] | – | – | – | – | – | – | – | – | – | – | – | – | – | LD50 at 168 h [1]: 2150 mg/kg; Inhibitory activity of the blood-plaque aggregation, ADRENALINE, a (R) [2, 9]: 91% and 78% and 86% and 88% and 77%; Inhibitory activity of the blood-plaque aggregation, D.P.A., a (R) [5, 9]: 87% and 53% and 79% and 55% and 85%; Inhibitory activity of the blood-plaque aggregation, COLLAGENE, a (R) ([3]; reference product, C (R)=2×10^-4 g/ml): 36%; Percentage flow increase P (R) ([4]; reference product, 1×10^-5 g/ml, coronary flow at climax of activity): 43% and 53% and 71%
O=C(OCC(O)CO)c1ccccc1Nc1ccnc2cc(Cl)ccc12 (stereo not shown) [Galfenine, ester of N-(7-chloro-4 quinolyl) anthranilic acid and 2,3-dihydroxy n.propanol, reference compound] | – | – | – | – | – | – | – | – | – | – | – | – | – | Analgesic and anti-inflammatory activity, percentage activity a(R) ([6]; reference substance, 25 mg/kg orally, crises between 10 and 15 minutes, 25 mg/kg): 75% and 77% and 45% and 74%

— patent US4186136A, “Novel benzothienyl amino (propyl and butyl) ketones, a method of preparation thereof and their application to therapeutics” (priority 1975, dated 1980)
